One test has as its target T1, BRD4 BD1 (Homo sapiens, UniProt O60885).
T1 construct: made in house
As to the kind of experiment: AlphaScreen binding assay, BRD4 Bromodomain 1. In outline:
(§1)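 Compound dilution series were mixed with His-tagged BRD4 bromodomain and biotinylated tetra-acetylated H4 (1-21) peptide at pH 7.3 (BD1 and peptide at 50 nM, BD2 and peptide at 100 nM). Donor and acceptor beads were then added, and plates were equilibrated at least 1 h before reading. IC50 values were fitted with a four-parameter logistic model.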
In general terms: In Alpha technology, singlet oxygen from a donor bead excites a nearby acceptor bead.

The target of another test is T2, BRD4 BD2 (Homo sapiens, UniProt O60885).
T2 construct: made in house
As to the kind of experiment: AlphaScreen binding assay, BRD4 Bromodomain 2. In outline:
as §1

The next test deals with MV4-11 cells. As to the kind of experiment: Oncology cell growth assay (3-day proliferation, CellTiter-Glo). The note with it: Homo sapiens, MV4-11, 72 h, AML cell line MV4-11, 72 hours, compounds grouped by IC50 range, read-out: MV4-11 IC50 (inhibition of proliferation, gIC50). The format is cell-based. The method, then: The impact of Example compounds on cancer cell proliferation was determined using the acute myelocytic leukemia (AML) cell line MV4-11 (ATCC) in a 3-day proliferation assay. MV4-11 cells were maintained in RPMI 1640 media supplemented with 10% FBS at 37° C. and an atmosphere of 5% CO2. For compound testing, compound dilutions series were prepared in DMSO via a 3-fold serial dilution from 2 mM to 0.001 mM in 384-well white flat bottom plates. The final compound concentrations in the wells were 10, 3.3, 1.1, 0.37, 0.12, 0.041, 0.013 and 0.0045 μM. MV4-11 cells were plated at a density of 3000 cells/well in final volume of 50 μl culture media and incubated for 72 hours. […] Luminescent signal from the CellTiter-Glo assay was read on an EnVision multilabel plate reader (PerkinElmer). Values for the concentration that inhibited cell growth by 50% (gIC50) between the DMSO control and background control (no cells) were determined using IDBS Activity Base software with a four parameter logistic curve fit by the equation y=A+((B−A)/(1+((C/x)^D))), wherein A denotes the bottom plateau of the curve, B denotes the top plateau of the curve, C denotes the x value at the middle of the curve, D denotes the slope factor, x denotes the original known x values, and y denotes the original known y values. Data was fitted using the Levenburg Marquardt algorithm.
A general note: In ATP-based viability assays light output follows the ATP content of the culture.

As to `CCS(=O)(=O)Nc1ccc(-c2ccc3c(c2)N(C(=O)OC2CCCCC2)C[C@H](C)N3C(C)=O)cc1` [Example I-1269], the IC50 on BRD4 BD1 is 0.1 to 1 µM; at BRD4 BD2 it was 0.05 to 0.5 µM; in the test with MV4-11 cells, less than 0.1 µM.

As for `CC(=O)N1c2ccc(-c3cnn(C4CC4)c3)cc2N(C(=O)C2CC2)C[C@@H]1C` [Example I-8, (S)-1-(4-(cyclopropanecarbonyl)-6-(1-cyclopropyl-1H-pyrazol-4-yl)-2-methyl-3,4-dihydroquinoxalin-1(2H)-yl)ethanone], the IC50 at BRD4 BD1 is 0.1 to 1 µM; on BRD4 BD2, less than 0.05 µM; with MV4-11 cells, 0.1 to 0.5 µM.

For the molecule `CC(=O)N1c2ccc(-c3cnn(C4CC4)c3)cc2N(C(=O)Oc2cccc(C#N)c2)C[C@@H]1C` [Example I-501], the IC50 at BRD4 BD1 was in the range of 0.1 to 1 µM; at BRD4 BD2 it was 0.05 to 0.5 µM; in the test on MV4-11 cells, 0.1 to 0.5 µM.

As to `COC(=O)N1c2ccc(-c3cnn(C4CC4)c3)cc2N(C(=O)OC2CCC2)C[C@@H]1C` [Example I-1005], the IC50 on BRD4 BD1 lay within 0.1 to 1 µM; at BRD4 BD2 it was 0.05 to 0.5 µM; with MV4-11 cells it was 0.1 to 0.5 µM.

Turning to `CC(=O)N[C@@H]1CCN(C(=O)c2ccc(-c3ccc4c(c3)N(C(=O)OC(C)C)C[C@H](C)N4C(=O)C3CC3)cc2)C1` [Example I-568], the IC50 on BRD4 BD1 lay within 0.1 to 1 µM; on BRD4 BD2, 0.05 to 0.5 µM; in the test on MV4-11 cells, 0.1 to 0.5 µM.

With `CC(=O)N1c2ccc(-c3cn(C)nc3C)cc2N(C(=O)OC(C)C)C[C@@H]1C` [Example I-338], the IC50 on BRD4 BD1 was 0.1 to 1 µM; at BRD4 BD2 it was 0.05 to 0.5 µM; with MV4-11 cells, more than 0.5 µM.

As for `CC(=O)N1c2ccc(-c3cnn(C4CC4)c3)cc2N(C(=O)OC2CC(F)(F)C2)C[C@@H]1C` [Example I-26, (S)-3,3-difluorocyclobutyl 4-acetyl-7-(1-cyclopropyl-1H-pyrazol-4-yl)-3-methyl-3,4-dihydroquinoxaline-1(2H)-carboxylate], the IC50 at BRD4 BD1 was in the range of 0.1 to 1 µM; at BRD4 BD2, 0.05 to 0.5 µM; in the test with MV4-11 cells, 0.1 to 0.5 µM.

Turning to `CC(=O)N1c2ccc(-c3cnn(CCN4CCCS4(=O)=O)c3)cc2N(C(=O)OC(C)C)C[C@@H]1C` [Example I-597], the values for the IC50 at BRD4 BD1, at BRD4 BD2 and with MV4-11 cells were 0.1 to 1 µM, 0.05 to 0.5 µM and 0.1 to 0.5 µM, respectively.

As to `COC(=O)N1c2ccc(-c3cnn(CC4(CO)COC4)c3)cc2N(C(=O)OC(C)C)C[C@@H]1C` [Example I-630], the figures for the IC50 at BRD4 BD1, on BRD4 BD2 and in the test on MV4-11 cells were less than 0.1 µM, 0.05 to 0.5 µM and 0.1 to 0.5 µM, respectively.

Consider `CC(C)OC(=O)N1C[C@H](C)N(C(=O)C2CC2)c2ccc(-c3cnn(CCN4CCCS4(=O)=O)c3)cc21` [Example I-611], for which the IC50 was 0.1 to 1 µM on BRD4 BD1, 0.05 to 0.5 µM on BRD4 BD2 and more than 0.5 µM with MV4-11 cells.

As for `CC(C)OC(=O)N1C[C@H](C)N(C(=O)C2CC2)c2ccc(-c3cnn(CCO)c3)cc21` [Example I-315], the figures for the IC50 at BRD4 BD1, at BRD4 BD2 and in the test on MV4-11 cells were 0.1 to 1 µM, 0.05 to 0.5 µM and 0.1 to 0.5 µM, respectively.

As to `CC(=O)N1c2ccc(-c3ccc4cnn(C)c4c3)cc2N(C(=O)c2ccco2)C[C@@H]1C` [Example I-843], the IC50 at BRD4 BD1 is 0.1 to 1 µM; at BRD4 BD2, less than 0.05 µM; in the test with MV4-11 cells, 0.1 to 0.5 µM.

On to `COC(=O)N1c2ccc(-c3ccc(C(=O)N4CCNCC4)cc3)cc2N(C(=O)C2CC2)C[C@@H]1C` [Example I-456], for which the values for the IC50 at BRD4 BD1, on BRD4 BD2 and in the test on MV4-11 cells were 0.1 to 1 µM, 0.05 to 0.5 µM and 0.1 to 0.5 µM, respectively.

For `CC(=O)N1c2ccc(-c3cnn(C4CCC4)c3)cc2N(C(=O)OC(C)C)C[C@@H]1C` [Example I-24, (S)-isopropyl 4-acetyl-7-(1-cyclobutyl-1H-pyrazol-4-yl)-3-methyl-3,4-dihydroquinoxaline-1(2H)-carboxylate], the results for the IC50 on BRD4 BD1, on BRD4 BD2 and in the test with MV4-11 cells were less than 0.1 µM, 0.05 to 0.5 µM and 0.1 to 0.5 µM, respectively.

For `CC(=O)N1c2ccc(-c3cn(C)cn3)cc2N(C(=O)c2ccco2)C[C@@H]1C` [Example I-401], the IC50 on BRD4 BD1 was 1 to 10 µM; at BRD4 BD2 it was less than 0.05 µM; in the test with MV4-11 cells, 0.1 to 0.5 µM.

For the molecule `CC(=O)N1c2ccc(-c3cnn(C4CCOCC4)c3)cc2N(C(=O)C2CC2)C[C@@H]1C` [Example I-1302], the IC50 was 0.1 to 1 µM at BRD4 BD1, less than 0.05 µM at BRD4 BD2 and 0.1 to 0.5 µM with MV4-11 cells.

For `CC(=O)N1c2ccc(-c3ccc(C(=O)O)cc3)cc2N(C(=O)c2ccco2)C[C@@H]1C` [Example I-799], the results for the IC50 on BRD4 BD1, on BRD4 BD2 and in the test with MV4-11 cells were 1 to 10 µM, 0.05 to 0.5 µM and more than 0.5 µM, respectively.

Turning to `CC(=O)N1c2ccc(-c3cnn(C4CC4)c3)cc2N(C(=O)Oc2cc(C)ccc2F)C[C@@H]1C` [Example I-1198], the IC50 lay within 0.1 to 1 µM at BRD4 BD1, 0.05 to 0.5 µM at BRD4 BD2 and 0.1 to 0.5 µM in the test on MV4-11 cells.

For `CCOC(=O)N1C[C@H](C)N(C(C)=O)c2ccc(-c3ccc(S(=O)(=O)n4cccn4)cc3)cc21` [Example I-1117], the IC50 was 1 to 10 µM on BRD4 BD1, 0.05 to 0.5 µM on BRD4 BD2 and more than 0.5 µM with MV4-11 cells.

Consider `CC(=O)N1c2ccc(-c3cnn(C4CC4)c3)cc2N(c2nn(C)c3c(F)cccc23)C[C@@H]1C` [Example I-179, 1-[(2S)-6-(1-cyclopropyl-1H-pyrazol-4-yl)-4-(7-fluoro-1-methyl-1H-indazol-3-yl)-2-methyl-1,2,3,4-tetrahydroquinoxalin-1-yl]ethan-1-one], for which the IC50 at BRD4 BD1 is 0.1 to 1 µM; at BRD4 BD2, less than 0.05 µM; in the test on MV4-11 cells, 0.1 to 0.5 µM.

Consider `CC(=O)N1c2ccc(-c3cccc(S(=O)(=O)N(C)C)c3)cc2N(C(=O)OC(C)C)C[C@@H]1C` [Example I-1049], for which the IC50 on BRD4 BD1 is 1 to 10 µM; on BRD4 BD2, 0.05 to 0.5 µM; in the test with MV4-11 cells, 0.1 to 0.5 µM.

As to `CC(=O)N1c2ccc(-c3ccc(NS(C)(=O)=O)c(C)c3)cc2N(C(=O)C2CCC2)C[C@@H]1C` [Example I-1172], the IC50 on BRD4 BD1 was 0.1 to 1 µM; on BRD4 BD2, 0.05 to 0.5 µM; in the test on MV4-11 cells, 0.1 to 0.5 µM.

Turning to `COC(=O)N1c2ccc(-c3cn(C)nn3)cc2N(C(=O)OC(C)C)C[C@@H]1C` [Example I-490], the IC50 on BRD4 BD1 was 0.1 to 1 µM; at BRD4 BD2 it was 0.05 to 0.5 µM; in the test with MV4-11 cells, more than 0.5 µM.

`CC(=O)N1c2ccc(-c3ccc(S(=O)(=O)CC4CC4)cc3)cc2N(C(=O)C2CC2)C[C@@H]1C` [Example I-1074]: the results for the IC50 on BRD4 BD1, on BRD4 BD2 and in the test on MV4-11 cells were 1 to 10 µM, 0.05 to 0.5 µM and more than 0.5 µM, respectively.

Consider `CC(=O)N1c2ccc(-c3cnn(C4COC4)c3)cc2N(C(=O)OC2CCCCC2)C[C@@H]1C` [Example I-86, (S)-cyclohexyl 4-acetyl-3-methyl-7-(1-(oxetan-3-yl)-1H-pyrazol-4-yl)-3,4-dihydroquinoxaline-1(2H)-carboxylate], for which the IC50 was 0.1 to 1 µM on BRD4 BD1, 0.05 to 0.5 µM on BRD4 BD2 and less than 0.1 µM in the test on MV4-11 cells.

Take `CC(C)OC(=O)N1C[C@H](C)N(C(=O)C2CC2)c2ccc(-c3cnn(C4CCOCC4)c3)cc21` [Example I-313]: the IC50 is 0.1 to 1 µM on BRD4 BD1, 0.05 to 0.5 µM at BRD4 BD2 and 0.1 to 0.5 µM in the test on MV4-11 cells.

For `CC(=O)N1c2ccc(-c3cnn(Cc4ccn(C)n4)c3)cc2N(C(=O)C2CC2)C[C@@H]1C` [Example I-682], the IC50 at BRD4 BD1 lay in the range of 0.1 to 1 µM; on BRD4 BD2, 0.05 to 0.5 µM; in the test with MV4-11 cells, 0.1 to 0.5 µM.

As for `CC(=O)N1c2ccc(-c3ccc(S(=O)(=O)N(C)C)cc3)cc2N(C(=O)OC2CCOCC2)C[C@@H]1C` [Example I-1264], the IC50 lay within 0.1 to 1 µM at BRD4 BD1, 0.05 to 0.5 µM on BRD4 BD2 and 0.1 to 0.5 µM in the test on MV4-11 cells.

These data come from US10703764B2, “Benzopiperazine compositions as BET bromodomain inhibitors” (FORMA Therapeutics, Inc., priority 2013, dated 2020).
